The values below come from ChEMBL document CHEMBL2321831, “Design, synthesis, and biological evaluations of novel 7-[7-amino-7-methyl-5-azaspiro[2.4]heptan-5-yl]-8-methoxyquinolines with potent antibacterial activity against respiratory pathogens” (J Med Chem, 2013).

The MIC50 is the lowest concentration that inhibits either 50% of growth or 50% of the strains tested, depending on the study. The low end stands for higher susceptibility, the high end for lower susceptibility. The term MIC80 denotes an inhibitory concentration at the 80% level, which refers to growth in some studies and to a panel of isolates in others. Low readings indicate greater potency, high ones weaker potency. What is called MIC90 is the lowest concentration that inhibits either 90% of growth or 90% of the strains tested, depending on the study. A higher MIC90 goes with lower susceptibility.

In brackets after ≈: the same amount, converted by molar mass.

What all share (type): functional
The test system of experiment [1] is Streptococcus pneumoniae. Briefly: Antibacterial activity against levofloxacin-intermediate and levofloxacin-resistant Streptococcus pneumoniae after 18 hrs by microbroth dilution method.
Experiment [2] has as its system Chlamydia pneumoniae. Briefly: Antibacterial activity against Chlamydophila pneumoniae CM-1 after 18 hrs by microbroth dilution method. To be noted: CM-1, 18 h.
Experiment [3] has as its system Chlamydia pneumoniae. Briefly: Antibacterial activity against Chlamydophila pneumoniae AR39 after 18 hrs by microbroth dilution method. The note with it: AR39, 18 h. Background: Broth dilution looks for growth in wells or tubes with falling amounts of substance.
For experiment [4], the system named is Mycoplasmoides pneumoniae. Briefly: Antibacterial activity against Mycoplasma pneumoniae ATCC 29085 after 18 hrs by microbroth dilution method. The note with it: ATCC 29085, 18 h.
Experiment [5] relates to Mycoplasmoides pneumoniae. Briefly: Antibacterial activity against Mycoplasma pneumoniae 18-1 after 18 hrs by microbroth dilution method. The note with it: 18-1, 18 h.
For a further experiment, the system named is Pseudomonas aeruginosa. The experiment can be described thus: Antibacterial activity against Pseudomonas aeruginosa PAO1 after 18 hrs by microbroth dilution method. To be noted: PAO1, 18 h.
Another experiment deals with Moraxella catarrhalis. The experiment can be described thus: Antibacterial activity against Moraxella catarrhalis ATCC 25238 after 18 hrs by microbroth dilution method. The note with it: ATCC 25238, 18 h.
In the next experiment the test system is Haemophilus influenzae. Briefly: Antibacterial activity against Haemophilus influenzae ATCC 49247 after 18 hrs by microbroth dilution method. To be noted: ATCC 49247, 18 h.
Another experiment relates to Klebsiella pneumoniae. The experiment can be described thus: Antibacterial activity against Klebsiella pneumoniae TYPE1 after 18 hrs by microbroth dilution method. To be noted: TYPE1, 18 h.
The next experiment has as its system Bacillus subtilis. The experiment can be described thus: Antibacterial activity against Bacillus subtilis IID 685 after 18 hrs by microbroth dilution method. To be noted: IID 685, 18 h.
In the next experiment the test system is Streptococcus pyogenes. The experiment can be described thus: Antibacterial activity against Streptococcus pyogenes G-36 after 18 hrs by microbroth dilution method. The note with it: G-36, 18 h.
A further experiment relates to Enterococcus faecalis. The experiment can be described thus: Antibacterial activity against Enterococcus faecalis ATCC 19433 after 18 hrs by microbroth dilution method. To be noted: ATCC 19433, 18 h.
Experiment [6] has as its system Streptococcus pneumoniae. Briefly: Antibacterial activity against penicillin-susceptible Streptococcus pneumoniae J24 after 18 hrs by microbroth dilution method. The note with it: J24, 18 h.
For experiment [7], the system named is Staphylococcus epidermidis. The experiment can be described thus: Antibacterial activity against Staphylococcus epidermidis 56500 after 18 hrs by microbroth dilution method. To be noted: Staphylococcus epidermidis, 56500, 18 h.
Experiment [8] concerns Staphylococcus aureus. Briefly: Antibacterial activity against levofloxacin-resistant and methicillin-resistant Staphylococcus aureus 870307 after 18 hrs by microbroth dilution method. The note with it: Staphylococcus aureus, 870307, 18 h.
The subject of experiment [9] is Staphylococcus aureus. The experiment can be described thus: Antibacterial activity against Staphylococcus aureus FDA 209-P after 18 hrs by microbroth dilution method.

In the experiment on Streptococcus pneumoniae [1], `CC1(C)S[C@@H]2[C@H](NC(=O)Cc3ccccc3)C(=O)N2[C@H]1C(=O)O` [PENICILLIN G] displayed an MIC50 of 0.06 mg/L (≈ 0.179 µM), an MIC80 of 2 mg/L (≈ 5.98 µM) and an MIC90 of 2 mg/L (≈ 5.98 µM).

Consider `CO/N=C1\CN(c2nc3c(cc2F)c(=O)c(C(=O)O)cn3C2CC2)CC1CN` (stereo not drawn) [GEMIFLOXACIN], for which the MIC was 0.063 mg/L (≈ 0.162 µM) in the experiment on Chlamydia pneumoniae [2], 0.125 mg/L (≈ 0.321 µM) against Chlamydia pneumoniae [3], 0.25 mg/L (≈ 0.642 µM) in [4] and 0.25 mg/L (≈ 0.642 µM) in experiment [5].

With `CC1(C)S[C@@H]2[C@H](NC(=O)[C@H](N)c3ccc(O)cc3)C(=O)N2[C@H]1C(=O)O` [AMOXICILLIN], in the experiment on Streptococcus pneumoniae [1], the MIC50 stood at 0.06 mg/L (≈ 0.164 µM), the MIC80 came to 2 mg/L (≈ 5.47 µM) and the MIC90 was 2 mg/L (≈ 5.47 µM).

Regarding `C[C@H]1NCc2cc(-c3ccc4c(=O)c(C(=O)O)cn(C5CC5)c4c3OC(F)F)ccc21` [GARENOXACIN], the MIC50 against Streptococcus pneumoniae [1] stood at 0.25 mg/L (≈ 0.586 µM). In addition, the MIC80 with Streptococcus pneumoniae [1] amounted to 0.5 mg/L (≈ 1.17 µM). Moreover, in the experiment with Streptococcus pneumoniae [1], the MIC90 turned out to be 1 mg/L (≈ 2.35 µM). In addition, the MIC against Chlamydia pneumoniae [2] is 0.016 mg/L (≈ 0.0375 µM); in the experiment on Chlamydia pneumoniae [3], 0.063 mg/L (≈ 0.148 µM); in experiment [4], 0.06 mg/L (≈ 0.141 µM); in [5], 0.12 mg/L (≈ 0.281 µM).

On to `COc1c(N2CC(C)(N)C3(CC3)C2)c(F)cc2c(=O)c(C(=O)O)cn([C@@H]3C[C@@H]3F)c12` (stereo partly drawn), for which the MIC in the experiment with Pseudomonas aeruginosa was found to be 0.78 mg/L (≈ 1.86 µM); against Moraxella catarrhalis it was 0.05 mg/L (≈ 0.119 µM); in the experiment on Haemophilus influenzae, 0.006 mg/L (≈ 0.0143 µM); in the experiment with Klebsiella pneumoniae, 0.1 mg/L (≈ 0.238 µM); against Bacillus subtilis, 0.39 mg/L (≈ 0.93 µM); with Streptococcus pyogenes, 0.78 mg/L (≈ 1.86 µM). Also, the MIC with Enterococcus faecalis stood at 0.78 mg/L (≈ 1.86 µM); against Streptococcus pneumoniae [6], 0.39 mg/L (≈ 0.93 µM); in experiment [7], 0.2 mg/L (≈ 0.477 µM); against Staphylococcus aureus [8], 1.56 mg/L (≈ 3.72 µM); against Staphylococcus aureus [9], 0.05 mg/L (≈ 0.119 µM).
